Results reported in patent US12029738B2, “Antiproliferative compounds and methods of use thereof” (Celgene Corporation, priority 2017, dated 2024).
pIC50: −log10 of the molar value. Read-outs that look alike come from different tables or passages of the source.

What was measured:
Format in all cases: cell-based, human
[1] = system: OPM2-P10; test: PBMC and MM cell treatment assay (single culture vs co-culture); details: for pIC50: Homo sapiens, PBMC, read-out: Immune-mediated Cell Killing IC50
Method: (§1) PBMC and MM Cell Treatment Assay Procedure. Ninety-six-well dishes were pre-coated with anti-CD3 antibody (OKT3, 3 μg/mL) and incubated at 4° C. overnight before the start of the experiment. Frozen PBMC donor cells were thawed at 37° C. for 2 minutes in RPMI medium with 10% FBS and cell counts and viability were measured on the Vi-CELL analyzer. Peripheral blood mononuclear cells were washed and diluted to 1×10^6 cells/mL and dispensed into the compound-treated plates in a total volume of 200 μL. Cells were incubated with compounds for 2 h before being transferred onto anti-CD3-coated plates and incubated for an additional 72 h. At the same time, MM cell lines (NCI-H929, H929-1051, OPM2, OPM2-P10) were diluted to a final concentration of 0.1×10^6 cells/mL and labeled with CellTrace CFSE according to manufacturer's instructions. Multiple myeloma cell lines were then dispensed into compound-treated plates at a total volume of 200 μL and incubated for 72 h. After 72 h, the PBMCs and MM cells were counted and transferred into a U-bottom 96-well plate at a final T:E ratio of 1:5. After 24 h coculture, specific target cell lysis by PBMC cells was measured using Annexin V-AF647 and 7-AAD according to manufacturer's instructions and samples were run on the Attune NxT Cytometer.
(§2) Because preincubation of immune cells with Compound 2 enhanced the targeting and lysing of MM cells, the effect of preincubation of MM cells with Compound 2 on their susceptibility to immune-mediated killing was also explored (FIG. 16A, FIG. 16B, FIG. 16C, and FIG. 16D, Table 12). Four MM cell lines and anti-CD3 antibody-activated PBMCs were separately preincubated with Compound 2, lenalidomide, or pomalidomide for 72 h. When anti-CD3 antibody-activated PBMCs and MM lines were both pretreated with Compound 2, lenalidomide, or pomalidomide, followed by co-culture, the effects on the PBMC-induced MM cell lysis were enhanced both in the potency and magnitude of the killing response. […] For the pomalidomide-resistant OPM2-P10 cell line, Compound 2 treatment of the MM cells enhanced the immune-mediated killing by ˜3000-fold (Table 12).

[2] = system: NCI-H929; test: as above; details: for pIC50: Homo sapiens, NCI-H929, NCI-H929, read-out: Immune-mediated Cell Killing IC50
Method: as §1, §2

[3] = system: H929-1051; test: as above; details: for pIC50: Homo sapiens, PBMC, read-out: Immune-mediated Cell Killing IC50
Method: as §1, §2

[4] = system: NCI-H929; test: Flow cytometry proliferation/apoptosis assay (120 h); details: for pIC50: Homo sapiens, read-out: Antiproliferative Activity (Flow Cytometry) IC50; for induced apoptosis AUC (area under the dose response curve): scale 0-10000
Method: (§3) Methods. […] Twenty MM cell lines (Table 7 and 8) (including the plasma cell leukemia (PCL) cell lines L363, JJN-3, ARH-77, and SKMM-2) were treated in duplicate with escalating concentrations of Compound 2 or pomalidomide, ranging from 0.015 to 100 nM. Using 5 mM stocks, compounds were pre-spotted into the appropriate wells of 96-well plates using a Hewlett-Packard D300 Digital Dispenser. Cells were added to 96-well plates using a Multidrop Combi Reagent Dispenser. After 5 days of treatment, flow cytometric analysis was used to determine the number of cells that were alive, dead, or apoptotic. After 5 days of treatment, cells were incubated with annexin V to stain exposed phosphatidylserine, an apoptotic cell-surface marker, and the vital dye 7-AAD, which is excluded from cells with intact cell membranes, and analyzed by flow cytometry (Attune®, Thermo Fisher). Analysis was then performed to determine the number of live cells (annexin V and 7-AAD double negative staining cells) and the percentage of apoptotic cells (annexin V positive cells) for each condition, relative to the DMSO control treated, was calculated. All described values were normalized to DMSO-only treated cells. All proliferation and apoptosis induction curves were processed and graphed as percent of control using XLFit (IDBS, Alameda, CA) and GraphPad Prism 7.03 (GraphPad Software, La Jolla, CA). The live cell count for every concentration was normalized to the DMSO control (considered as 100%) in Microsoft Excel to generate the proliferation curves. […] Similarly, for apoptosis analysis, the percentage of drug-induced apoptosis was calculated for all doses by combining both “early” (annexin V positive and 7-AAD negative) and “late” apoptosis (annexin V and 7-AAD positive) values and subtracting background values (cell treated with vehicle control DMSO). The AUC values for apoptosis curves were calculated by performing area under curve analysis on GraphPad Prism 7.03. The area under the dose-response curve (AUC) was calculated since it integrates potency and efficacy of the drugs to represent apoptosis into a single parameter. The IC50 values for Compound 2 and pomalidomide in the flow cytometry assays are presented Table 9.
(§4) The apoptosis induction effect of Compound 2 was assessed using flow cytometry after 120 h of treatment and compared with pomalidomide treatment. […] Each data point represents 2 independent experiments with at least two samples in each experiment. (Table 10).

[5] = system: OPM2; test: as above; details: for pIC50: Homo sapiens, OPM-2, read-out: Antiproliferative Activity (Flow Cytometry) IC50; for induced apoptosis AUC (area under the dose response curve): scale 0-10000
Method: as §3, §4

[6] = system: KMS-12-PE; test: as above; details: for pIC50: Homo sapiens, read-out: Antiproliferative Activity (Flow Cytometry) IC50; for induced apoptosis AUC (area under the dose response curve): scale 0-10000
Method: as §3, §4

[7] = system: DF15; test: as above; details: for pIC50: Homo sapiens, read-out: Antiproliferative Activity (Flow Cytometry) IC50; for induced apoptosis AUC (area under the dose response curve): scale 0-10000
Method: as §3, §4

[8] = system: MM1-S; test: as above; details: for pIC50: Homo sapiens, MM1-S, read-out: Antiproliferative Activity (Flow Cytometry) IC50; for induced apoptosis AUC (area under the dose response curve): MM1.S, 10000 = complete induction at all doses, 0 = none
Method: as §3, §4

[9] = system: ANBL-6; test: as above; details: for pIC50: Homo sapiens, read-out: Antiproliferative Activity (Flow Cytometry) IC50; for induced apoptosis AUC (area under the dose response curve): scale 0-10000
Method: as §3, §4

[10] = system: LP-1; test: as above; details: for pIC50: Homo sapiens, read-out: Antiproliferative Activity (Flow Cytometry) IC50; for induced apoptosis AUC (area under the dose response curve): scale 0-10000
Method: as §3, §4

Q: Which results are given for `Nc1cccc2c1C(=O)N(C1CCC(=O)NC1=O)C2=O` (stereo not shown) [Pomalidomide, pomalidomide]?
A: pIC50 ([1]; Co-culture with PBMCs): 5.93; pIC50 ([1]; Single culture): < 5.00; pIC50 ([2]; Co-culture with PBMCs): 7.35; pIC50 ([2]; Single culture): < 5.00; pIC50 ([3]; H929-1051, Co-culture with PBMCs): 7.15; pIC50 ([3]; H929-1051, Single culture): < 5.00; pIC50 [4]: 7.20; induced apoptosis AUC (area under the dose response curve) [4]: 2115; pIC50 [5]: 7.16; induced apoptosis AUC (area under the dose response curve) [5]: 3298; pIC50 [6]: 7.08; induced apoptosis AUC (area under the dose response curve) [6]: 1069; pIC50 [7]: 7.39; induced apoptosis AUC (area under the dose response curve) [7]: 3707; pIC50 [8]: 7.47; induced apoptosis AUC (area under the dose response curve) [8]: 3525; pIC50 [9]: 7.22; induced apoptosis AUC (area under the dose response curve) [9]: 2580; pIC50 [10]: 6.76; induced apoptosis AUC (area under the dose response curve) [10]: 174

Q: What does the source list for `N#Cc1ccc(N2CCN(Cc3ccc(COc4cccc5c4CN([C@H]4CCC(=O)NC4=O)C5=O)cc3)CC2)c(F)c1` [Compound 2, (S)-4-(4-(4-(((2-(2,6-dioxopiperidin-3-yl)-1-oxoisoindolin-4-yl)oxy)methyl)benzyl)piperazin-1-yl)-3-fluorobenzonitrile]?
A: enhancement of immune-mediated killing, co-culture versus single culture IC50 [1]: ~3000 fold; pIC50 ([1]; Co-culture with PBMCs): 8.51; pIC50 ([1]; Single culture): < 5.00; pIC50 ([2]; Co-culture with PBMCs): 10.06; pIC50 ([2]; Single culture): 6.24; enhancement of killing, co-culture versus single culture IC50 ([2]; NCI-H929): ~7000 fold; enhancement of killing, co-culture versus single culture IC50 ([3]; H929-1051): ~6000 fold; pIC50 ([3]; H929-1051, Single culture): 6.24; pIC50 [3]: 10.00; pIC50 [4]: 10.30; induced apoptosis AUC (area under the dose response curve) [4]: 6089; pIC50 [5]: 10.30; induced apoptosis AUC (area under the dose response curve) [5]: 5620; pIC50 [6]: 10.05; induced apoptosis AUC (area under the dose response curve) [6]: 2017; pIC50 [7]: 10.30; induced apoptosis AUC (area under the dose response curve) [7]: 6002; pIC50 [8]: 10.40; induced apoptosis AUC (area under the dose response curve) [8]: 5701; pIC50 [9]: 10.22; induced apoptosis AUC (area under the dose response curve) [9]: 4751; pIC50 [10]: 9.85; induced apoptosis AUC (area under the dose response curve) [10]: 630.7
